Experimental data from patent US20080009418A1, “Selective Inhibitors” (Alchemia LTD., priority 2004, published 2008).

Legend:
Human δ-opioid (DOP) = biological target: T1, Human δ-opioid (DOP) (Homo sapiens, UniProt P41143); experiment: Radioligand binding, human δ-opioid (DOP) membranes, FlashPlate, [3H]-Bremazocine; details: compound at 10 μM; human δ-opioid (DOP) membranes
T1 construct: purchased Perkin Elmer Biosignal
Method in brief: (§1)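 Cloned human receptor membranes were coated onto FlashPlate wells and incubated with radioligand and compound (added from a 0.5 mM DMSO daughter plate) for 1 hour at room temperature in the dark. Scintillation counting gave percent inhibition, with DMSO defining total and reference ligand defining non-specific binding.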

Human opioid (ORL1) = biological target: T2, Human opioid (ORL1) (Homo sapiens, UniProt P41146); experiment: Radioligand binding, human opioid ORL1 membranes, FlashPlate, [125I]-Nociceptin; details: compound at 10 μM; human ORL1 membranes
T2 construct: purchased Perkin Elmer Biosignal
Method in brief: as §1

Human Melanocortin (MC3) = biological target: T3, Human Melanocortin (MC3) (Homo sapiens, UniProt P41968); experiment: Radioligand binding, human melanocortin MC3 membranes, FlashPlate, [125I]-NDP-αMSH; details: compound at 10 μM; human melanocortin MC3 membranes
T3 construct: purchased Perkin Elmer Biosignal
Method in brief: as §1

[1] = biological target: T4, Human melanin-concentrating hormone (MCH1) (Homo sapiens, UniProt Q99705); experiment: Radioligand binding, human melanin-concentrating hormone MCH1 membranes, FlashPlate, [125I]-S36057; details: compound at 10 μM; human MCH1 membranes
T4 construct: purchased Perkin Elmer Biosignal
Method in brief: as §1

[2] = biological target: T5, Human neuropeptide Y (NPY-Y1) (Homo sapiens, UniProt P25929); experiment: Radioligand binding, human neuropeptide Y NPY-Y1 membranes, FlashPlate, [125I]-PYY; details: compound at 10 μM; human NPY-Y1 membranes
T5 construct: purchased Perkin Elmer Biosignal
T5 sequence (P25929 1-384): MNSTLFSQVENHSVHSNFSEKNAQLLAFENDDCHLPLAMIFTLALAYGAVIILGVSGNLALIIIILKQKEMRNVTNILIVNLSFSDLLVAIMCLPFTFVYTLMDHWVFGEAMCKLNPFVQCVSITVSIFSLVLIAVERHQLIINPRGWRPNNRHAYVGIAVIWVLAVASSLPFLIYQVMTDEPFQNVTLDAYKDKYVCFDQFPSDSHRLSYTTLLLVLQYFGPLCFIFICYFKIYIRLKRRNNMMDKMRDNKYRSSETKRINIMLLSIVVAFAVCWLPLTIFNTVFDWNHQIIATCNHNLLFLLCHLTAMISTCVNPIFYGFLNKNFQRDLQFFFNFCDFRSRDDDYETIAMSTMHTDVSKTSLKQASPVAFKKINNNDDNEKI
Method in brief: as §1

Human κ-Opioid (KOP) = biological target: T6, Human κ-Opioid (KOP) (Homo sapiens, UniProt P41145); experiment: Radioligand binding, human κ-opioid (KOP) membranes, filtration, [3H]-Diprenorphine; details: compound at 10 μM; human κ-opioid (KOP) membranes
T6 construct: purchased Perkin Elmer Biosignal
Method in brief: (§2)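 Filtration binding on cloned human receptor membranes (1 Unit/well), [125I]-Substance P for NK1 and [3H]-Diprenorphine for KOP, 1 h at room temperature. Filters PEI-presoaked, washed with cold 50 mM Tris-HCl pH 7.4, counted by scintillation; percent inhibition calculated, reference ligand defining non-specific binding.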

Human μ-opioid (MOP) = biological target: T7, Human μ-opioid (MOP) (Homo sapiens, UniProt P35372); experiment: Radioligand binding, human μ-opioid (MOP) membranes, FlashPlate, [3H]-Naloxone; details: compound at 10 μM; human μ-opioid (MOP) membranes
T7 construct: purchased Perkin Elmer Biosignal
Method in brief: as §1

Human melanocortin (MC5) = biological target: T8, Human melanocortin (MC5) (Homo sapiens, UniProt P33032); experiment: Radioligand binding, human melanocortin MC5 membranes, FlashPlate, [125I]-NDP-αMSH; details: compound at 10 μM; human melanocortin MC5 membranes
T8 construct: purchased Perkin Elmer Biosignal
Method in brief: as §1

Mouse urotensin (mUR2) = biological target: T9, Mouse urotensin (mUR2) (Mus musculus, UniProt Q8VIH9); experiment: Radioligand binding, mouse urotensin mUR2 membranes, FlashPlate, [125I]-Urotensin II; details: compound at 10 μM; mouse urotensin mUR2 membranes
T9 construct: purchased Perkin Elmer Biosignal
T9 sequence (Q8VIH9 1-385): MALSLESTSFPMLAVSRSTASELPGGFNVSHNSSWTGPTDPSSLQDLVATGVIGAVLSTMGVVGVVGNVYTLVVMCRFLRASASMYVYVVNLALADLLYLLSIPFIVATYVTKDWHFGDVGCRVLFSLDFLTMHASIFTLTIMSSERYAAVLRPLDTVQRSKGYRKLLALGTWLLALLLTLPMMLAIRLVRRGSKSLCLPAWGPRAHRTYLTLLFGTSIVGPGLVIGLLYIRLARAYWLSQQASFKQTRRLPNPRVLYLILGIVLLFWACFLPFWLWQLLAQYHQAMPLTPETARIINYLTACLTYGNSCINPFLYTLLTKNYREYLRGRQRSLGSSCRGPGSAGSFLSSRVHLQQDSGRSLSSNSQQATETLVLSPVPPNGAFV
Method in brief: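 Cloned mouse urotensin (mUR2) receptor membranes from Perkin Elmer Biosignal were immobilized in FlashPlate microplates using a proprietary coating. Each well got 19.5 μl buffer, then 0.5 μl of DMSO, reference ligand, or compound. Adding 5 μl of [125I]-Urotensin II, diluted to 5× final concentration in binding buffer, started binding. Plates were sealed with TopSeal-A and incubated 1 hour at room temperature in the dark. Wells were counted for 30 seconds each on a TopCount after a 60-second delay, and percentage inhibition was calculated.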

Human Melanocortin (MC4) = biological target: T10, Human Melanocortin (MC4) (Homo sapiens, UniProt P32245); experiment: Radioligand binding, human melanocortin MC4 membranes, FlashPlate, [125I]-NDP-αMSH; details: compound at 10 μM; human melanocortin MC4 membranes
T10 construct: purchased Perkin Elmer Biosignal
Method in brief: as §1

Human neurokinin (NK1) = biological target: T11, Human neurokinin (NK1) (Homo sapiens, UniProt P25103); experiment: Radioligand binding, human neurokinin NK1 membranes, filtration, [125I]-Substance P; details: compound at 10 μM; human neurokinin NK1 membranes
T11 construct: purchased Perkin Elmer Biosignal
Method in brief: as §2

T3 sequence (P41968 whole entry): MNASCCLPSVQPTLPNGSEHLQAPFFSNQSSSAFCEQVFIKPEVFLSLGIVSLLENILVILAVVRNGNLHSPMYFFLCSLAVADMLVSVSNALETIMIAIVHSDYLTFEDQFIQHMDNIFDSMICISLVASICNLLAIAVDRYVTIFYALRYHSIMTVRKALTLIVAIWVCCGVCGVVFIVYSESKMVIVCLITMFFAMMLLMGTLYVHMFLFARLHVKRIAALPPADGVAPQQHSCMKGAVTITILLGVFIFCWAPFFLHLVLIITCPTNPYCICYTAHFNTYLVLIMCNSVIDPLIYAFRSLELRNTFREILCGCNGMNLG
T1 sequence (P41143 whole entry): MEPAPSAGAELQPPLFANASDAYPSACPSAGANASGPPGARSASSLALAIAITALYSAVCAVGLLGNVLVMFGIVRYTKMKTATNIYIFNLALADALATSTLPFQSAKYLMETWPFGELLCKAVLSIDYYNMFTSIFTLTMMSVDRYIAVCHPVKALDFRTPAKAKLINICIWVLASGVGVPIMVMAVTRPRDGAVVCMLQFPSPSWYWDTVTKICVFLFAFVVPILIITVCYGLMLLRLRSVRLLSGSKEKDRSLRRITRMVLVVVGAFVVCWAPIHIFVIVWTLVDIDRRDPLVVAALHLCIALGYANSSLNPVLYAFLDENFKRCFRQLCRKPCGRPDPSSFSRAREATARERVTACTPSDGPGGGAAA
T4 sequence (Q99705 whole entry): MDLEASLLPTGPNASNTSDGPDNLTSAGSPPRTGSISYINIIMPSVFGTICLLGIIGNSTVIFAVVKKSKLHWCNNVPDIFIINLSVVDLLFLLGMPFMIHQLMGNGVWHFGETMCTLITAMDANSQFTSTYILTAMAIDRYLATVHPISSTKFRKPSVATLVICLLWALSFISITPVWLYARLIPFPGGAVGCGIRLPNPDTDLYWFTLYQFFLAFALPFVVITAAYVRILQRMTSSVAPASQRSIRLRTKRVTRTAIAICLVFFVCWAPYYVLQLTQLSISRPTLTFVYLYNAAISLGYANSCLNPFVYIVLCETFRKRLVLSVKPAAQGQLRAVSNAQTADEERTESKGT
T8 sequence (P33032 whole entry): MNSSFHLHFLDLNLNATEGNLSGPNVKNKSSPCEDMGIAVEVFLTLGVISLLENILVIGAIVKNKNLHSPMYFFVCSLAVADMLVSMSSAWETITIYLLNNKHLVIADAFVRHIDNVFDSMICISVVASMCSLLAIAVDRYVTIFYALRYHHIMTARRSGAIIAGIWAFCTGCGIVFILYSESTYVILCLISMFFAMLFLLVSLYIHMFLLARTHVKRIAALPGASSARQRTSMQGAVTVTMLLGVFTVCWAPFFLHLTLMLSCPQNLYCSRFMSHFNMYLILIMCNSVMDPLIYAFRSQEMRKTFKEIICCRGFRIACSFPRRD
T11 sequence (P25103 whole entry): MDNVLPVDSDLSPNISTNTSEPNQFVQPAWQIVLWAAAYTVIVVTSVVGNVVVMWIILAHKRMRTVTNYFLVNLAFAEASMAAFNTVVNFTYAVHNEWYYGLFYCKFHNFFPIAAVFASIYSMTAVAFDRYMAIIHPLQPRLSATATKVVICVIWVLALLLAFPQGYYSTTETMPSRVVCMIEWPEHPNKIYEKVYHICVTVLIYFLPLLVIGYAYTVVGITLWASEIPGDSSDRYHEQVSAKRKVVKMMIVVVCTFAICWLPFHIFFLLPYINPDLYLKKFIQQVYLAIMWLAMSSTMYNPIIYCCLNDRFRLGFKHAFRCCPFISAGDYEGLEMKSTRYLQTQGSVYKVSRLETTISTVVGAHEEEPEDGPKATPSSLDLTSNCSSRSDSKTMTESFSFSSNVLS
T7 sequence (P35372 whole entry): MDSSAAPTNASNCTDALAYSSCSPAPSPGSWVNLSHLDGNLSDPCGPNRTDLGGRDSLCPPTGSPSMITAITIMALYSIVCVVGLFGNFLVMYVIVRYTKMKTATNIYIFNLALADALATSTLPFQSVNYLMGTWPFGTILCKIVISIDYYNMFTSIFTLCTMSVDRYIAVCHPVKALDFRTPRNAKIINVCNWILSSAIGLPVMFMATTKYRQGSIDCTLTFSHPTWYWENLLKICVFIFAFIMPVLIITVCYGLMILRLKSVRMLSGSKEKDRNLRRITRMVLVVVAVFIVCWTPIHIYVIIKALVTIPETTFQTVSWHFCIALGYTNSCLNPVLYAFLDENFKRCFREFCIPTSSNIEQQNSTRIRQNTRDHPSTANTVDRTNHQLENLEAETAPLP
T2 sequence (P41146 whole entry): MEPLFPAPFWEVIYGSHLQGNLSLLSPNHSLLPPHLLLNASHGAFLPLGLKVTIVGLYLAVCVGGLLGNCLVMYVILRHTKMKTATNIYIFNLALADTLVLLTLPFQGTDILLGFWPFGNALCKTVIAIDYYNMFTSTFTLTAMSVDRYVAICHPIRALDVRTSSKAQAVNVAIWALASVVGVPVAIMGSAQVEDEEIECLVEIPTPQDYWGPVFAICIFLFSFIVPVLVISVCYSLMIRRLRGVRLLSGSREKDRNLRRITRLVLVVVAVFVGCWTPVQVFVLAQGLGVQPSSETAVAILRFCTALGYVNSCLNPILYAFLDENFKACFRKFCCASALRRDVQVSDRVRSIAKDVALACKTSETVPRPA
T10 sequence (P32245 whole entry): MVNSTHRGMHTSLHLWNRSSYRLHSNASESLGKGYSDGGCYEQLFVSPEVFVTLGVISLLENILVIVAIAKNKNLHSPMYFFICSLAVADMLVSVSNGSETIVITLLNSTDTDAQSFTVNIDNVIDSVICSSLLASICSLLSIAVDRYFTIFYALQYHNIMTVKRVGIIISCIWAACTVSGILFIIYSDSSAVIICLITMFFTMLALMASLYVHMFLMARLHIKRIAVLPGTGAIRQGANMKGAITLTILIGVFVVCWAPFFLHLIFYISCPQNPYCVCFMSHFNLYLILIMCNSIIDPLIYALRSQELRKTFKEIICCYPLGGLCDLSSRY
T6 sequence (P41145 whole entry): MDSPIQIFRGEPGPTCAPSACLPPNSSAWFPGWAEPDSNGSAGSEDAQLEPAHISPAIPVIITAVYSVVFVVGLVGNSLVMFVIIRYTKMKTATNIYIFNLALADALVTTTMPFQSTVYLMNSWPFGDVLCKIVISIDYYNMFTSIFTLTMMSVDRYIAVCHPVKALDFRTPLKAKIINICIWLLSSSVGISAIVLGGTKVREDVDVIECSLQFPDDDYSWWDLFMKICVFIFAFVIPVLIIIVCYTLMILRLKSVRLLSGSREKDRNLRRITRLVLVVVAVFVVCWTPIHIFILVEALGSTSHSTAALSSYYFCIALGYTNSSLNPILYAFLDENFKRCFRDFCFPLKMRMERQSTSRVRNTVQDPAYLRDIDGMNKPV

Row | SMILES | A1 radioligand binding inhibition (Human δ-opioid (DOP)) | A10 radioligand binding inhibition (Human opioid (ORL1)) | A3 radioligand binding inhibition (Human Melanocortin (MC3)) | A6 radioligand binding inhibition [1] | A9 radioligand binding inhibition [2] | A2 radioligand binding inhibition (Human κ-Opioid (KOP)) | A7 radioligand binding inhibition (Human μ-opioid (MOP)) | A5 radioligand binding inhibition (Human melanocortin (MC5)) | A11 radioligand binding inhibition (Mouse urotensin (mUR2)) | A4 radioligand binding inhibition (Human Melanocortin (MC4)) | A8 radioligand binding inhibition (Human neurokinin (NK1))
1 | CO[C@H]1[C@H](O)[C@@H](COCc2ccc3ccccc3c2)OC(OCc2ccccc2)[C@@H]1NC(=O)CNC(=N)N (stereo partly drawn) [compound 86] | − (“−” indicates less than 50% inhibition at 10 μM) | − (“−” indicates less than 50% inhibition at 10 μM) | + (“+” indicates greater than 50% inhibition at 10 μM) | − (“−” indicates less than 50% inhibition at 10 μM) | − (“−” indicates less than 50% inhibition at 10 μM) | − (“−” indicates less than 50% inhibition at 10 μM) | + (“+” indicates greater than 50% inhibition at 10 μM) | + (“+” indicates greater than 50% inhibition at 10 μM) | − (“−” indicates less than 50% inhibition at 10 μM) | + (“+” indicates greater than 50% inhibition at 10 μM) | + (“+” indicates greater than 50% inhibition at 10 μM)
2 | CO[C@H]1[C@H](O)[C@@H](COCc2ccc3ccccc3c2)OC(OCc2ccccc2)[C@@H]1NC(=O)CCNC(=N)N (stereo partly drawn) [compound 87] | − (“−” indicates less than 50% inhibition at 10 μM) | − (“−” indicates less than 50% inhibition at 10 μM) | − (“−” indicates less than 50% inhibition at 10 μM) | − (“−” indicates less than 50% inhibition at 10 μM) | − (“−” indicates less than 50% inhibition at 10 μM) | − (“−” indicates less than 50% inhibition at 10 μM) | − (“−” indicates less than 50% inhibition at 10 μM) | − (“−” indicates less than 50% inhibition at 10 μM) | − (“−” indicates less than 50% inhibition at 10 μM) | − (“−” indicates less than 50% inhibition at 10 μM) | + (“+” indicates greater than 50% inhibition at 10 μM)
3 | CO[C@H]1[C@H](O)[C@@H](COCc2ccc3ccccc3c2)OC(OCc2ccccc2)[C@@H]1NC(=O)CCCN (stereo partly drawn) [compound 88] | − (“−” indicates less than 50% inhibition at 10 μM) | − (“−” indicates less than 50% inhibition at 10 μM) | − (“−” indicates less than 50% inhibition at 10 μM) | − (“−” indicates less than 50% inhibition at 10 μM) | − (“−” indicates less than 50% inhibition at 10 μM) | − (“−” indicates less than 50% inhibition at 10 μM) | − (“−” indicates less than 50% inhibition at 10 μM) | − (“−” indicates less than 50% inhibition at 10 μM) | − (“−” indicates less than 50% inhibition at 10 μM) | − (“−” indicates less than 50% inhibition at 10 μM) | + (“+” indicates greater than 50% inhibition at 10 μM)
4 | CO[C@H]1[C@H](O)[C@@H](COCc2ccc3ccccc3c2)OC(OCc2ccccc2)[C@@H]1NC(=O)CCCNC(=N)N (stereo partly drawn) [compound 89] | − (“−” indicates less than 50% inhibition at 10 μM) | − (“−” indicates less than 50% inhibition at 10 μM) | − (“−” indicates less than 50% inhibition at 10 μM) | − (“−” indicates less than 50% inhibition at 10 μM) | − (“−” indicates less than 50% inhibition at 10 μM) | − (“−” indicates less than 50% inhibition at 10 μM) | + (“+” indicates greater than 50% inhibition at 10 μM) | − (“−” indicates less than 50% inhibition at 10 μM) | − (“−” indicates less than 50% inhibition at 10 μM) | − (“−” indicates less than 50% inhibition at 10 μM) | + (“+” indicates greater than 50% inhibition at 10 μM)
5 | CO[C@H]1[C@H](O)[C@@H](COCc2ccc(Cl)cc2)OC(OCc2ccccc2)[C@@H]1NC(=O)CNC(=N)N (stereo partly drawn) [compound 90] | − (“−” indicates less than 50% inhibition at 10 μM) | − (“−” indicates less than 50% inhibition at 10 μM) | − (“−” indicates less than 50% inhibition at 10 μM) | − (“−” indicates less than 50% inhibition at 10 μM) | − (“−” indicates less than 50% inhibition at 10 μM) | − (“−” indicates less than 50% inhibition at 10 μM) | − (“−” indicates less than 50% inhibition at 10 μM) | − (“−” indicates less than 50% inhibition at 10 μM) | − (“−” indicates less than 50% inhibition at 10 μM) | − (“−” indicates less than 50% inhibition at 10 μM) | + (“+” indicates greater than 50% inhibition at 10 μM)
6 | CO[C@H]1[C@H](O)[C@@H](COCc2ccc(Cl)cc2)OC(OCc2ccccc2)[C@@H]1NC(=O)CCNC(=N)N (stereo partly drawn) [compound 91] | − (“−” indicates less than 50% inhibition at 10 μM) | − (“−” indicates less than 50% inhibition at 10 μM) | − (“−” indicates less than 50% inhibition at 10 μM) | − (“−” indicates less than 50% inhibition at 10 μM) | − (“−” indicates less than 50% inhibition at 10 μM) | − (“−” indicates less than 50% inhibition at 10 μM) | − (“−” indicates less than 50% inhibition at 10 μM) | − (“−” indicates less than 50% inhibition at 10 μM) | − (“−” indicates less than 50% inhibition at 10 μM) | − (“−” indicates less than 50% inhibition at 10 μM) | + (“+” indicates greater than 50% inhibition at 10 μM)
